Test systems include 786-0 renal; HL-60(TB) leukemia; HOP-62 NSCLC; HT29 colon; M19-MEL melanoma; RPMI-8226 leukemia; SNB-78 CNS; A498 renal; DU-145 prostate; MCF7 breast; T-47D breast.
Holding throughout (experiment): growth of human tumour cells (NCI), 48 h

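Exposure lasted 48 hours, with cells grown in 96-well plates and compounds tested at five concentrations. TGI: concentration producing complete growth inhibition.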

Take `CC(=O)Nc1ccc(-c2nnc(SCC(=O)Nc3cccc([N+](=O)[O-])c3)o2)cc1`: the TGI was found to be 40.6 µM in the assay with 786-0 renal; 58.2 µM in the assay with HL-60(TB) leukemia; 45.8 µM in the assay with HOP-62 NSCLC; 37.2 µM in the assay on HT29 colon; 28.3 µM in the assay on M19-MEL melanoma; 75.8 µM in the assay on RPMI-8226 leukemia. In the assay on SNB-78 CNS, this compound came in with a TGI of 50 µM.

For the compound `COc1cc(/C=C2\N=C(C)N(n3c(-c4ccccc4)nc4ccccc4c3=O)C2=O)cc(OC)c1OC`, the TGI in the assay on 786-0 renal, in the assay on A498 renal, with DU-145 prostate, with HL-60(TB) leukemia, in the assay with HOP-62 NSCLC and with HT29 colon was > 100 µM throughout. Further, the TGI in the assay on MCF7 breast, in the assay with RPMI-8226 leukemia and with T-47D breast was > 100 µM throughout.

Take `CNC(=O)c1ccccc1[S+]1c2cccc3cccc(c23)C(=O)N1C` (centres undefined): the TGI in the assay on 786-0 renal, in the assay on A498 renal, in the assay with DU-145 prostate, in the assay on HL-60(TB) leukemia, in the assay on HOP-62 NSCLC and with HT29 colon was > 100 µM each time. Besides, the TGI in the assay on MCF7 breast, with RPMI-8226 leukemia and with T-47D breast was > 100 µM throughout.

Regarding `CNc1ncnc2c1nnn2C`, the TGI in the assay on 786-0 renal, in the assay on A498 renal, with DU-145 prostate, with HL-60(TB) leukemia, in the assay on HOP-62 NSCLC and in the assay on HT29 colon was > 100 µM in each case. In addition, the TGI in the assay on MCF7 breast, in the assay with RPMI-8226 leukemia and in the assay with T-47D breast was > 100 µM each time.

Regarding `O=C(Cn1c(=O)oc2ccc(C(=O)c3ccccc3Cl)cc21)c1ccc([N+](=O)[O-])cc1`, the TGI in the assay with 786-0 renal, with A498 renal, in the assay on DU-145 prostate, with HL-60(TB) leukemia, with HOP-62 NSCLC and with HT29 colon was > 100 µM in each case. Moreover, the TGI turned out to be 89.1 µM in the assay on MCF7 breast, 77.2 µM in the assay on RPMI-8226 leukemia and 56.5 µM in the assay on T-47D breast.

For `COP(=O)(OC)c1ccc(NCc2cc(O)ccc2O)cc1`, the TGI in the assay with 786-0 renal is 58.1 µM; in the assay with A498 renal, > 100 µM; with DU-145 prostate it was > 90.5 µM; in the assay on HL-60(TB) leukemia it was > 92.2 µM; in the assay with HOP-62 NSCLC, > 84.7 µM; with HT29 colon it was 56.3 µM. Further, the TGI in the assay with MCF7 breast worked out at 99.3 µM; with RPMI-8226 leukemia, 62.4 µM; in the assay with T-47D breast, 70.1 µM.

As to `Cc1cc2c(cc1-c1cc3c(cc1C)C(C(C)C)=C(O)C(=O)/C3=C\Nc1c(C)n(C)n(-c3ccccc3)c1=O)/C(=C/Nc1c(C)n(C)n(-c3ccccc3)c1=O)C(=O)C(O)=C2C(C)C`, the TGI with 786-0 renal, with A498 renal, with DU-145 prostate, with HL-60(TB) leukemia, with HOP-62 NSCLC and in the assay with HT29 colon was > 100 µM each time. Also, the TGI with MCF7 breast, in the assay with RPMI-8226 leukemia and in the assay with T-47D breast was > 100 µM in each case.

Take `COc1ccc(CCNC(=O)CCCCCO)cc1OC`: the TGI in the assay with 786-0 renal, with A498 renal, in the assay on DU-145 prostate, in the assay with HL-60(TB) leukemia, with HOP-62 NSCLC and in the assay on HT29 colon was > 100 µM throughout. For the same compound, the TGI with MCF7 breast, in the assay on RPMI-8226 leukemia and in the assay with T-47D breast was > 100 µM in each case.

For `CN(C)CCNC(=O)c1cccc2[nH]c(-c3ccncc3)nc12`, the TGI in the assay on 786-0 renal is 4.15 µM; in the assay with A498 renal, 19.8 µM; with DU-145 prostate, > 100 µM; in the assay on HL-60(TB) leukemia it was 4.06 µM; with HOP-62 NSCLC it was 52.8 µM; with HT29 colon, 7.27 µM. Further, the TGI is > 30.8 µM with MCF7 breast, 21.5 µM with RPMI-8226 leukemia and > 86.1 µM with T-47D breast.

In the case of `CCCCNC(=S)c1ccc(OC(=O)Nc2ccc(Cl)cc2)cc1`, the TGI with 786-0 renal, in the assay with A498 renal, with DU-145 prostate, with HL-60(TB) leukemia, with HOP-62 NSCLC and in the assay on HT29 colon was > 100 µM in each case. The TGI with MCF7 breast, with RPMI-8226 leukemia and with T-47D breast was > 100 µM throughout.

As to `COc1cc2cc3c4c(cc(OC)c(OC)c4c2cc1OC)CCN3C(=O)N(C)C`, the TGI in the assay on 786-0 renal, with A498 renal, in the assay with HL-60(TB) leukemia, with HOP-62 NSCLC, in the assay with HT29 colon and in the assay with M19-MEL melanoma was > 100 µM throughout. In addition, the TGI in the assay on RPMI-8226 leukemia and in the assay with SNB-78 CNS was > 100 µM in each case.

On to `S=c1nc2sc3c(c2c(Nc2ccc(Br)cc2)[nH]1)CCN(N1CCc2c(sc4nc(=S)[nH]c(Nc5ccc(Br)cc5)c24)C1)C3`, for which the TGI in the assay with 786-0 renal is 15.5 µM; in the assay with A498 renal it was 31.3 µM; with DU-145 prostate it was > 50 µM; in the assay with HL-60(TB) leukemia it was > 50 µM; in the assay on HOP-62 NSCLC, > 50 µM; with HT29 colon, > 50 µM. Moreover, the TGI in the assay on MCF7 breast, in the assay on RPMI-8226 leukemia and with T-47D breast was > 50 µM throughout.

Consider `CSC1(SC)N2Cc3ccccc3N=C2C1(c1ccccc1)c1ccccc1`, for which the TGI was > 100 µM in the assay on 786-0 renal; > 46.9 µM in the assay with A498 renal; > 100 µM in the assay with DU-145 prostate; > 53.1 µM in the assay with HL-60(TB) leukemia; > 100 µM with HOP-62 NSCLC; > 100 µM in the assay on HT29 colon. The TGI with MCF7 breast was > 87.9 µM; with RPMI-8226 leukemia, 97.1 µM; in the assay with T-47D breast, > 100 µM.

The values above are taken from PubChem BioAssay (NCI).
